Molecules are shown by their SMILES. In brackets after ≈: the same amount, converted by molar mass. Several values for one entry are separate records, joined by “and”; a condition that tells them apart may be missing. Equal entries are not always repeated.

One series is described as follows: physchem. In kind it is physicochemical, human. To be noted: for solubility at 18 h: human, urine. The text has this:
Solubilities in urine could be expected to be lower than those for water due to the relatively higher salt content in urine than is found in water.
Each sample was filtered through a 5 micron pore-sized filter, diluted as necessary with the HPLC mobile phase, and then quantified by HPLC.

For series [1], the system named is human peripheral blood lymphocytes (sheep red blood cells as antigen). As to the kind of experiment: Antigen-specific adjuvanticity: direct anti-SRBC plaque forming cells, human system. In kind it is cell-based. As to conditions: for Average 1 Log Plaque Values: Table 9, human, * = single study. As for the experimental part: ^1 Studies were carried in a manner similar to those of Table 1,
except that a human lymphocyte preparation was used.
The results shown in Table 7, below, were obtained similarly to those discussed above, but using human lymphocytes. Some of those studies utilized lymphocytes from more than one individual, and are therefore reported with multiple entries.
Human peripheral blood lymphocytes (PBL) were prepared from normal heparinized venous blood by Ficoll-diatrizoate density gradient centrifugation. PBL were depleted of suppressor T cells bearing the histamine type 2 receptor by adhering them to the surfaces of histamine-rabbit serum albumin-coated plastic petri dishes (Cell-ect No. 2 kit; Seragen, Boston, Mass.) and by recovering the nonadherent cells by panning as described by Wysocki and Sato, Proc. Natl. Acad. Sci. USA, 75:2844 (1978) and modified by Cavagnaro and Osband, Biotechniques, January/February:30 (1983).
The tissue culture medium employed in these studies for human lymphocytes was prepared as follows: One hundred milliliters (ml) contained 87.9 ml RPMI 1640 (Flow Laboratories, Rockville, Md.), 0.1 ml 100×glutamine,1.0 ml of 1.0 M HEPES buffer (Microbilogical Associates, Betheseda, Md.), 1.0 ml of water containing 10^4 U of penicillin G and 10^4 micrograms of streptomycin, and 10 ml of fresh autologous heat-inactivatedplasma. For evaluation of the primary humoral immune response to SRBC, lymphoid cells prepared as above were cultured at a density of 2×10^6 /ml in a volume of 1.0 ml containing 5×10^6 SRBC as antigen (Colorado Serum Co., Denver, Colo.) together with IL-2 (a partially purified preparation of human IL-2 that was free of interferon-gamma activity was obtained from Electro-Nucleonics, Inc., Silver Spring, Md.) and the guanine nucleoside derivative.
(§1) Assay of plaque forming cells (PFC). PFC secreting antibodies against SRBC were evaluated after 4 or 5 days of culture using a modification of the hemolytic plaque assay of Jerne and Nordin, Science, 140:405 (1963). The cells were brought up in complete medium before plaquing; they were plaqued in standard low Mr agarose (Bio-Rad Laboratories, Richmond Calif.), and were incubated in SRBC-absorbed guinea pig complement for one hour after a 1.5 hour incubation without complement.

For series [2], the system named is murine lymphocytes (sheep red blood cells as antigen). As to the kind of experiment: Antigen-specific adjuvanticity: direct anti-SRBC plaque forming cells, murine system. To be noted: for Peak Direct anti-SRBC PFC/Culture: murine system, at peak concentration; for Average 1 Log Plaque Values: Table 9, murine, * = single study. In kind it is cell-based, mouse.
Text: ^1 Adjuvanticities against sheep red blood cells [SRBC] measured in
direct plaqueforming cells per culture of lymphocytes from the mouse
strains shown. Details of the procedure are provided in the Materials and
Methods Section. Standard errors from the enumerated mean values are show
A large number of comparisons of adjuvanticity using human and murine lymphocytes as the source of leukocytes have been carried out using compounds of the present invention, as well as with new compounds excluded from the present invention. […] Interstudy comparisons are however useful for showing trends and large differences. Tables 5, 6 and 7, hereinafter, provide exemplary data from such studies in which only the activity at the peak concentration is shown for each compound and the results for the controls are omitted.
Lymphocyte cultures. The serum-containing culture medium water prepared to contain the following per 100 milliliters: 91.9 milliliters RPMI 1640 (Flow Laboratories, Inc., Rockville, Md.), 0.1 milliliters of 100×glutamine, 1.0 milliliter of 100×sodium pyruvate, 1 0 milliliter of 50×nonessential amino acids, 1.0 milliliter of water containing 10^4 units of penicillin G and 10^4 micrograms of streptomycin, and 5.0 milliliters of a supportive lot of fetal calf serum (FCS). These ingredients were admixed to apparent homogeneity. Spleen cell suspensions and populations enriched for splenic B cells were prepared as described in Goodman et al., J. Immunol., 121:1905 (1978).
For evaluation of the primary humoral immune response to sheep erythrocytes (SRBC), 5×10^6 to 10^7 murine spleen cells were cultured in 1.0 milliliter of 5% FCS-containing medium for 4 or 5 days in the presence and absence of immunogen. Cells were incubated in culture trays (Costar, Cambridge, Mass.) at 37° C. in a humidified atmosphere of 10% CO2 in air using tissue culture boxes (CBS Scientific, Del Mar, Calif.) that were rocked at a frequency of 7 cycles per minute. Pooled SRBC are available from the Colorado Serum Co., Denver Colo.
as §1

The test system of another series is murine spleen cells. Briefly: Mitogenicity: [3H]TdR uptake, murine system. As to conditions: Table 4. In kind it is cell-based, mouse.
Series [3] has as its system SJL splenocytes (irradiated CBA/CaJ splenocyte stimulators). Briefly: T cell proliferation in mixed leukocyte cultures, SJL splenocytes. The format is cell-based, mouse. As to conditions: responder +, stimulator +, 10^-3 M. The text has this: In evaluating the effect of a guanosine derivative on alloantigen-induced proliferation, it is imperative to minimize the simultaneous mitogenic response of B cells to contact with a guanosine derivative. Spleen cells from SJL mice (whose B cells are hyporesponsive to the mitogenic effect of a guanosine derivative, but not to its adjuvant activity) were used as responder cells in two studies. Those responder cells were stimulated with irradiated allogenic cells (from CBA/CaJ mice) in the presence of no added nucleoside, incremental amounts of a guanosine derivative of the invention, 7M8oGuo, or with another guanosine derivative, 8MGuo, used as a positive control.
(§2) ^1 Plus signs (+) are utilized to indicate the presence of the
material of the column heading in the culture medium, whereas minus signs
(-) are utilized to show absence of such a material from the culture
(§3) ^3 Allogeneic cells used to costimulate proliferation, after exposure
(§4) T Helper Cell Activation. 1.5×10^5 viable spleen cells from SJL mice or CBA/CaJ mouse thymocytes were cultured with or without an equal number of irradiated (2500 rads) spleen cells from CBA/CaJ or BDFl mice respectively, in 0.2 ml of culture medium in the presence of incremental concentrations of the exemplary 7,8-disubstituted guanine derivatives. The lymphocyte culture medium utilized was that described before, and was further supplemented with 2-mercaptoethanol to a final concentration of 50 uM. Thymocyte cultures also contained 10 percent (v/v) of a concanavalin A-conditioned rat spleen cell medium sold under the name Rat T Cell Monoclone by Collaborative Research. Following 90 hours of culture, one microCurie [^3 H]TdR per culture was admixed, and the resulting culture was maintained for a further six hour time period.
(§5) The cultures were harvested with a Brandel cell harvester (M24V, Biological Research and Development Laboratories, Rockville, Md.) onto glass fiber filter disks. Filter disks were transferred to plastic scintillation vials, covered with liquid scintillation cocktail, and counted in a Beckman LS5700 liquid scintillation counter.

Series [4] has as its system CBA/CaJ thymocytes (irradiated BDF1 splenocyte stimulators). As to the kind of experiment: T cell proliferation in mixed leukocyte cultures, CBA/CaJ thymocytes. The format is cell-based, mouse. As to conditions: responder +, stimulator +.
Text: A third and fourth study utilized thymocytes from CBA/CaJ mice as the stimulated (responder) cells, and irradiated BDFl mouse spleen cells as the stimulator cells. Two guanosine derivatives of the present invention, 7a8MGuo and 7a8oGuo, were used for these studies, with 8MGuo serving as positive control for one of the studies.
However, in the presence of interleukin-2 (IL-2), those cells develop responsiveness to allogeneic stimulation. The present studies utilizing thymocytes were therefore carried out in the presence of a co-stimulating amount of IL-2.
as §2, §3, §4, §5

In a further series the test system is lymphocytes. To be noted: cited from earlier work.
Series [5] relates to CBA/CaJ mouse spleen cells. Briefly: Primary humoral response to SRBC, immunocompetent CBA/CaJ spleen cells (comparison in FIG. 2). In kind it is cell-based. The text has this: (§6) FIG. 2 is a graph that illustrates the in vitro reconstitution of the primary humoral immune response to a specific antigen, SRBC, in cultured immunodeficient CBA/N mouse spleen cells (dotted line) obtained by contacting those cells with an aqueous composition containing 7a8oGuo, in the further presence of SRBC. A similar study using spleen cells from immunocompetent CBA/CaJ mice (solid line) is also shown in the graph for comparison. The points on each line represent the PFC value obtained in the presence of the indicated amount of 7a8oGuo plus SRBC. The ordinate and abscissa are as in FIG. 1. Further details of this study are provided hereinafter.
(§7) Cultures of spleen cells from male and female homzygous CBA/N and male mice heterozygous for the CBA/N gene, called the xid gene, (male mice bear the X chromosome) was prepared as described in the Materials and Methods Section. 0.1 Milliters of a 0.1 percent (v/v) SRBC suspension alone or the SRBC suspension plus incremental amounts of 7a8oGuo were added to the cultures, using 5×10^6 cells/ml. Direct anti-SRBC […] per culture were assessed after 4 days of culture.
The results of this study comparing cells from CBA/N mice with a preparation of spleen cells from CBA/CaJ mice, are shown in FIG. 2.

Another series concerns CBA/N mouse spleen cells. Briefly: In vitro reconstitution of primary humoral immune response to SRBC, immunodeficient CBA/N spleen cells (FIG. 2). The format is cell-based.
Text: as §6, §7

The mark [6] stands for this setting: Table 7, second group, person a.
Where [7] appears, read: Table 7, second group, person b.
[8] abbreviates: Table 7, second group, person c.

Text for murine spleen cells: ^1 Mitogenicity measured by the uptake of [^3 H]TdR
(tritiumlabeled thymidine deoxyribonucleoside) as determined by measuring
counts per minute (cpm) per cell culture using the conditions discussed i

As to `Cn1c(=O)n([C@@H]2O[C@H](CO)[C@@H](O)[C@H]2O)c2nc(N)[nH]c(=O)c21` [7m8oGuo, 7-methyl-8-oxoguanosine, reference compound], the solubility at 18 h in “physchem” was 4.88 mg/mL (≈ 15.6 mM). Besides, the “Peak Direct anti-SRBC PFC/Culture” value in [1] (Table 7, first group, person a) was determined as 1250 ± 125 PFC/Culture; in [1] (Table 7, first group, person b), 830 ± 67 PFC/Culture; in [1] (Table 7, first group, person c), 1225 ± 175 PFC/Culture; in series [1] (setting [6]) it was 528 PFC/Culture; in [1] (setting [7]) it was 297 PFC/Culture; in [1] (setting [8]), 263 PFC/Culture. For the same compound, the “Peak Direct anti-SRBC PFC/Culture” value in [2] (Table 5) turned out to be 723 ± 143 PFC/Culture. For the same compound, the “Average 1 Log Plaque Values” is 867 ± 217 per micromole in [1] and 22,359 ± 5154 per micromole in series [2]. The “Direct Anti-SRBC PFC/Culture” value in series [2] (Table 8, 1 × 10^-5 M) came to 145 PFC/Culture. Further, the results for the “[3H] TdR Uptake” value in the series with murine spleen cells (3 × 10^-4 M), in the series on murine spleen cells (10^-3 M) and in the series with murine spleen cells (10^-4 M) were 39,620 ± 1160 cpm/culture, 35,070 ± 1830 cpm/culture and 23,640 ± 770 cpm/culture, respectively.
Consider `Nc1nc2c(nc(S)n2[C@@H]2O[C@H](CO)[C@@H](O)[C@H]2O)c(=O)[nH]1` [8MGuo, 8-mercaptoguanosine, reference compound], for which the “[3H] TdR Uptake” value in series [3] (Study 1) is listed as 28,100 ± 2700 counts per minute; in series [3] (Study 2), 30,800 ± 1300 counts per minute; in series [4] (Study 3, 10^-4 M), 13,800 ± 1000 counts per minute; in series [4] (Study 3, 10^-5 M) it was 15,600 ± 1000 counts per minute. The “Direct Anti-SRBC PFC/Culture” value in [2] (Table 1, C57BL/6J, 3 × 10^-4 M) is 11,000 ± 140 PFC/Culture; in series [2] (Table 1, CBA/CaJ, 3 × 10^-4 M), 527 ± 25 PFC/Culture and 782 ± 123 PFC/Culture; in series [2] (Table 1, CBA/CaJ, 10^-4 M), 813 ± 129 PFC/Culture. For the same compound, the “Peak Direct anti-SRBC PFC/Culture” value in series [2] (Table 6) worked out at 527 ± 25 PFC/Culture.
On to `Nc1nc2c(nc(Br)n2[C@@H]2O[C@@H]3COP(=O)(O)O[C@H]3[C@H]2O)c(=O)[nH]1` [8-BrcGMP, 8-Bromoguanosine-3',5'-cyclic monophosphate], for which, in the series on lymphocytes, the “lymphocyte mitogenicity, in words” value was “weak synthetic intracellular lymphocyte mitogen”.
As to `C=CCn1c(=O)n([C@@H]2O[C@H](CO)[C@@H](O)[C@H]2O)c2nc(N)[nH]c(=O)c21` [7a8oGuo, 7-(2-Propenyl)-8-oxoguanosine], the “concentration giving the similar PFC/culture values” in series [5] is 10^-5 M; in the series on CBA/N mouse spleen cells it was 30 µM. Moreover, in the series “physchem”, the “solubility in human urine, in words” value is “about a three-fold greater solubility than did 7m8oGuo”. The concentration in solution in the series “physchem” (solubility at 18 h) was 16.3 mg/mL (≈ 48 mM). The “[3H] TdR Uptake” value in series [4] (Study 4, 10^-4 M) was 10,000 ± 800 counts per minute; in series [4] (Study 4, 10^-5 M) it was 8000 ± 300 counts per minute; in [4] (Study 4, 10^-6 M) it was 8300 ± 300 counts per minute; in the series on murine spleen cells (3 × 10^-4 M), 59,150 ± 420 cpm/culture; with murine spleen cells (10^-3 M), 51,340 ± 1050 cpm/culture; in the series on murine spleen cells (10^-4 M), 39,830 ± 780 cpm/culture. The “Peak Direct anti-SRBC PFC/Culture” value in series [1] (Table 7, first group, person a) is reported as 3038 ± 288 PFC/Culture; in series [1] (Table 7, first group, person b), 9250 ± 1010 PFC/Culture; in [1] (Table 7, first group, person c), 4831 ± 270 PFC/Culture; in series [1] (setting [6]), 477 PFC/Culture; in series [1] (setting [7]), 10,313 PFC/Culture; in series [1] (setting [8]) it was 4413 PFC/Culture. For the same compound, in [2] (Table 5), the “Peak Direct anti-SRBC PFC/Culture” value is given as 1827 PFC/Culture. In addition, the “Average 1 Log Plaque Values” in series [1] was 22,640 ± 4187 per micromole; in series [2] it was 98,237 ± 42,041 per micromole. In addition, in series [1] (human system (Table 3)), the “peak adjuvanticity values greater as compared to 7m8oGuo” value is “about 100%”. Besides, the “Direct Anti-SRBC PFC/Culture” value in series [2] (Table 8, 1 × 10^-5 M) is on record as 1387 PFC/Culture.

As a reminder, the solubility is the concentration that dissolves in the medium under given conditions.

Source of the values: patent US5011828A, “Immunostimulating guanine derivatives, compositions and methods” (priority 1988, dated 1991).
